The text below walks through data of patent publication US6117841A, “Substituted peptidylamine calcium channel blockers” (Warner-Lambert Company, priority 1999, dated 2000).

The assay addresses T1, N-type Ca^2+ Channel (Homo sapiens, UniProt Q00975).
T1 construct: host or cells: IMR-32 cells differentiated with dibutyryl cAMP and bromodeoxyuridine
Nature of the assay: Measurement of N-type Ca2+ channel blocking potencies in IMR-32 cells using the fluorescent Ca2+ indicator Indo-1. It counts as cell-based. To be noted: IMR-32 cells; for IC50: K+ depolarization, 5 μM nitrendipine to block L-type channels, read-out: IMR 32 IC50. The method, boiled down: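 IMR-32 cells were differentiated 7–13 days (1 mM dibutyryl cAMP, 2.5 µM BrdU) and Indo-1-loaded. They were preincubated 10 min at 30 °C with compound and 5 µM nitrendipine in HEPES/Tris pH 7.4 HBSS with 0.5% BSA, then KCl/CaCl2-depolarized. The peak-minus-basal 400/490 nm emission ratio gave IC50 by four-parameter logistic fit.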

T1 sequence (Q00975 whole entry): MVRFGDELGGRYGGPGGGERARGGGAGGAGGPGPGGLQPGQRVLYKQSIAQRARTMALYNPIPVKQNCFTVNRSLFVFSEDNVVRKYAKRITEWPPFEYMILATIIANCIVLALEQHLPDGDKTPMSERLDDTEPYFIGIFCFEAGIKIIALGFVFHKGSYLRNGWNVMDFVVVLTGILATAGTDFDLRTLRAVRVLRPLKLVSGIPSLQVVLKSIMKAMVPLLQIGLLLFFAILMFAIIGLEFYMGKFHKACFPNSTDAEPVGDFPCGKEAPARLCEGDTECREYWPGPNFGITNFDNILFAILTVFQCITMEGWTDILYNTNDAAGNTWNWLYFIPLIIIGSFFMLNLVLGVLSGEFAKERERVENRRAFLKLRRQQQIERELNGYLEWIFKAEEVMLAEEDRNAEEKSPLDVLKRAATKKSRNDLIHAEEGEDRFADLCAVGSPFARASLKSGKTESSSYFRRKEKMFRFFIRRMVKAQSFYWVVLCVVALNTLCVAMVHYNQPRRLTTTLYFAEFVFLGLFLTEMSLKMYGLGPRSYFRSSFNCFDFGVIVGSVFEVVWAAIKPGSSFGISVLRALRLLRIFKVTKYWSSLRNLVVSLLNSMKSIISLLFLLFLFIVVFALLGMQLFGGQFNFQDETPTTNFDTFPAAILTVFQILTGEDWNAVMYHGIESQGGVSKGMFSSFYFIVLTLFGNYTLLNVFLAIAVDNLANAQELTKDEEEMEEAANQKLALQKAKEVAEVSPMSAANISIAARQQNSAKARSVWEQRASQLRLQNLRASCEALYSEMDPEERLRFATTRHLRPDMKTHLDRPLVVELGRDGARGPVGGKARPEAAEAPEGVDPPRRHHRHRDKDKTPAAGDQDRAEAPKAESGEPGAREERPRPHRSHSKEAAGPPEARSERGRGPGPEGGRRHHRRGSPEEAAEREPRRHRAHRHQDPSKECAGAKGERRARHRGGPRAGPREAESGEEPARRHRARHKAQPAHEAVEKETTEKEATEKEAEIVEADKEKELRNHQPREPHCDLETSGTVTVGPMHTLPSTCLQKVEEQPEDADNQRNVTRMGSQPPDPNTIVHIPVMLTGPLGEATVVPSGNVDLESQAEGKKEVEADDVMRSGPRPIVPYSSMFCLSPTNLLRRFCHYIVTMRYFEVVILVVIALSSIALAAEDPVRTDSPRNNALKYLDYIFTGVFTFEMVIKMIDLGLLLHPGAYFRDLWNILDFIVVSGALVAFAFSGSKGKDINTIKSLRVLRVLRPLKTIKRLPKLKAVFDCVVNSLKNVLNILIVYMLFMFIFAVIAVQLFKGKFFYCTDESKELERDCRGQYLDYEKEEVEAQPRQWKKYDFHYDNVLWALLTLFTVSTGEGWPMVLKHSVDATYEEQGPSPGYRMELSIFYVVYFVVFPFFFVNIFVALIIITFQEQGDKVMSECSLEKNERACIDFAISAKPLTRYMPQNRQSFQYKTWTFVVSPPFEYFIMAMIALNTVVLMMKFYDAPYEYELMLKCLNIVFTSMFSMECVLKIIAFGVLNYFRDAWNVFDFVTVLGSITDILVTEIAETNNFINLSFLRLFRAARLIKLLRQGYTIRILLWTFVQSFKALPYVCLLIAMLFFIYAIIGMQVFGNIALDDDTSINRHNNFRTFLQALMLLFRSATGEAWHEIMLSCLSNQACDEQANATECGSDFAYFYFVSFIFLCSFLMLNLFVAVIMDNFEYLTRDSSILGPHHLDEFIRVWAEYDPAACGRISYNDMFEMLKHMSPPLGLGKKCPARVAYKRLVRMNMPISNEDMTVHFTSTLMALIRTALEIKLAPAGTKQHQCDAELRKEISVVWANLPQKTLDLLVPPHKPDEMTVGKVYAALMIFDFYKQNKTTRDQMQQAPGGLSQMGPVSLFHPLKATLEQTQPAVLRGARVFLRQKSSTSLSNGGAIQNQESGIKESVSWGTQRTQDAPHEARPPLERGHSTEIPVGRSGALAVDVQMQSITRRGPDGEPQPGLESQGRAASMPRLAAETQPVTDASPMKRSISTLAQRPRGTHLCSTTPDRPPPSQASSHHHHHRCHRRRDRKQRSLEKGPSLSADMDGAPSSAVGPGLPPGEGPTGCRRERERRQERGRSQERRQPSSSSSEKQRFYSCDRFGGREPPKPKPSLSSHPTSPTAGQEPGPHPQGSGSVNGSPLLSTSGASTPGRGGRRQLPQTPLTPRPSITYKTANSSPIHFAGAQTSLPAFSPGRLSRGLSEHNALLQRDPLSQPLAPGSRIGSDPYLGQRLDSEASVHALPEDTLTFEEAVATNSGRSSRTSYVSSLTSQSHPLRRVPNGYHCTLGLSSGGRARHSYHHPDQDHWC
T1 sequence (P54284 whole entry partner): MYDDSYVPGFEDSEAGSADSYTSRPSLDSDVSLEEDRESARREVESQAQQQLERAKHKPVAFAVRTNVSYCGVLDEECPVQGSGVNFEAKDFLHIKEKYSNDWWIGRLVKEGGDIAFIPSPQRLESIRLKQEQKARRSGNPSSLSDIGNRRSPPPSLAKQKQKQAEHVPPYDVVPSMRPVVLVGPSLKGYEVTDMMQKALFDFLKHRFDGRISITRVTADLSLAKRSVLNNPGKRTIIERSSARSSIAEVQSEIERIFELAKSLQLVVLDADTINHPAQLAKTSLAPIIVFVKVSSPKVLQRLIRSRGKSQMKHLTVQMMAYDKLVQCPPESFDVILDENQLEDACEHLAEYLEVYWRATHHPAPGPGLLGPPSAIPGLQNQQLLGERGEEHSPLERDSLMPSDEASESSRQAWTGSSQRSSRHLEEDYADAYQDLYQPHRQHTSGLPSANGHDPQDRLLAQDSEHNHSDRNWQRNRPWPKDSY
T1 sequence (P54289 25-946 partner limits assumed): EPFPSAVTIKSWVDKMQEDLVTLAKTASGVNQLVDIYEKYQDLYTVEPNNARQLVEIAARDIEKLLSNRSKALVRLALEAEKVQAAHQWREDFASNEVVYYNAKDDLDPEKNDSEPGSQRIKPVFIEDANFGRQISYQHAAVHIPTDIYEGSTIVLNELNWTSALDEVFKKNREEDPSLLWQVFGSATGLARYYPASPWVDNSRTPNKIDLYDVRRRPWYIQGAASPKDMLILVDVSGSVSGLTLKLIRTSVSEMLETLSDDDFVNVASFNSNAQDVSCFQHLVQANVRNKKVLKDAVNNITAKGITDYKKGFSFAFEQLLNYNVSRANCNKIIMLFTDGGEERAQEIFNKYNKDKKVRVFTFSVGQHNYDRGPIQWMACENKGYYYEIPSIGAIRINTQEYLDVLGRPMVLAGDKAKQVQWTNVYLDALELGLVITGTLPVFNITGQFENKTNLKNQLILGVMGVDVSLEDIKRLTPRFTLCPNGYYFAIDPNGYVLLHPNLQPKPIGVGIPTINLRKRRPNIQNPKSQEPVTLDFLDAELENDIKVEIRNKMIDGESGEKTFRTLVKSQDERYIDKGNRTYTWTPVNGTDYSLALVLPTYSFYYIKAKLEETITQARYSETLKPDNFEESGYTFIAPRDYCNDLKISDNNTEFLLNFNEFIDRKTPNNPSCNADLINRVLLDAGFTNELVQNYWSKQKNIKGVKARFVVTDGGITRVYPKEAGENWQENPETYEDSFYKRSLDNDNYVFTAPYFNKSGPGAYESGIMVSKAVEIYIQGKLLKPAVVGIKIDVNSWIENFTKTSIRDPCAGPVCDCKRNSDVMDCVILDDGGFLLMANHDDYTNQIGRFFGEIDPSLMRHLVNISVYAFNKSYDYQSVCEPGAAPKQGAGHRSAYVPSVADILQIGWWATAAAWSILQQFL
T1 sequence (P54289 947-1103 partner limits assumed): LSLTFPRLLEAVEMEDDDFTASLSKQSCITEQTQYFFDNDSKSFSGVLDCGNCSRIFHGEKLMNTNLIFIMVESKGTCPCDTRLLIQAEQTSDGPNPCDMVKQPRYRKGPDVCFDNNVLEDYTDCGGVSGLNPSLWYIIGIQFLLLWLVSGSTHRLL

As to `CC(C)CCN(C)[C@@H](CC(C)C)C(=O)N[C@@H](Cc1ccc(OCc2ccccc2)cc1)C(=O)N1CCSCC1` (relative stereo) [Example 61, [S-(R*,R*)]-4-Methyl-2-[methyl-(3-methyl-butyl)-amino]-pentanoic acid [1-(4-benzyloxy-benzyl)-2-oxo-2-thiomorpholin-4-yl-ethyl]-amide], the IC50 (usually the midpoint of a concentration-inhibition curve) was found to be 400 nM.

`CC(C)CCN(C)[C@@H](CC(C)C)C(=O)N[C@@H](Cc1ccc(OCc2ccccc2)cc1)C(=O)NC(C)(CO)CO` (relative stereo) [Example 62, [S-(R*,R*)]-4-Methyl-2-[methyl-(3-methyl-butyl)-amino]-pentanoic acid [2-(4-benzyloxy-phenyl)-1-(2-hydroxy-1-hydroxymethyl-1-methyl-ethylcarbamoyl)-ethyl]-amide]: the IC50 amounted to 1100 nM.

With `CCC(COC)NC(=O)[C@H](Cc1ccc(OCc2ccccc2)cc1)NC(=O)[C@H](CC(C)C)N(C)CCC(C)C` (relative stereo) [Example 63, [S-(R*,R*)]-4-Methyl-2-[methyl-(3-methyl-butyl)-amino]-pentanoic acid [2-(4-benzyloxy-phenyl)-1-(1-methoxymethyl-propylcarbamoyl)-ethyl]-amide], the IC50 was determined as 800 nM.

As to `CC(C)CCN(C)[C@@H](CC(C)C)C(=O)N[C@@H](Cc1ccc(OCc2ccccc2)cc1)C(=O)NCCN1CCCC1` (relative stereo) [Example 64, [S-(R*,R*)]-4-Methyl-2-[methyl-(3-methyl-butyl)-amino]-pentanoic acid [2-(4-benzyloxy-phenyl)-1-(2-pyrrolidin-1-yl-ethylcarbamoyl)-ethyl]-amide], the IC50 worked out at 2400 nM.

Regarding `CC(C)CCN(C)[C@@H](CC(C)C)C(=O)N[C@@H](Cc1ccc(OCc2ccccc2)cc1)C(=O)N1CCC(O)CC1` (relative stereo) [Example 65, [S-(R*,R*)]-4-Methyl-2-[methyl-(3-methyl-butyl)-amino]-pentanoic acid [1-(4-benzyloxy-benzyl)-2-(4-hydroxy-piperidin-1-yl)-2-oxo-ethyl]-amide], the IC50 stood at 1100 nM.

In the case of `CC(C)CCN(C)[C@@H](CC(C)C)C(=O)N[C@@H](Cc1ccc(OCc2ccccc2)cc1)C(=O)NC1CCN(Cc2ccccc2)C1` (relative stereo) [Example 67, [S-(R*,R*)]-4-Methyl-2-[methyl-(3-methyl-butyl)-amino]-pentanoic acid [2-(4-benzyloxy-phenyl)-1-(1-benzyl-pyrrolidin-3-ylcarbamoyl)-ethyl]-amide], the concentration for half-maximal inhibition (IC50) came to 400 nM.

For `CC(C)C[C@@H](C(=O)N[C@@H](Cc1ccc(OCc2ccccc2)cc1)C(=O)NCCNCc1ccccc1)N1CCOCC1` (relative stereo) [Example 68, [S-(R*,R*)]-4-Methyl-2-morpholin4-yl-pentanoic acid [1-(2-benzylamino-ethylcarbamoyl)-2-(4-benzyloxy-phenyl)-ethyl]-amide], the IC50 is 1100 nM.

Regarding `CC(C)C[C@@H](C(=O)N[C@@H](Cc1ccc(OCc2ccccc2)cc1)C(=O)NC1CCN(Cc2ccccc2)C1)N1CCOCC1` (relative stereo) [Example 69, [S-(R*,R*)]-4-Methyl-2-morpholin-4-yl-pentanoic acid [2-(4-benzyloxy-phenyl)-1-(1-benzyl-pyrrolidin-3-ylcarbamoyl)-ethyl]-amide], the IC50 stood at 1300 nM.

For the compound `CC(C)C[C@H](NC1CCOCC1)C(=O)N[C@@H](Cc1ccc(OCc2ccccc2)cc1)C(=O)NCCNCc1ccccc1` (relative stereo) [Example 71, [S-(R*,R*)]-4-Methyl-2-(tetrahydro-pyran-4-ylamino)-pentanoic acid [1-(2-benzylamino-ethylcarbamoyl)-2-(4-benzyloxy-phenyl)-ethyl]-amide], the IC50 worked out at 700 nM.

For `CC(C)C[C@H](NC1CCOCC1)C(=O)N[C@@H](Cc1ccc(OCc2ccccc2)cc1)C(=O)N1CCSCC1` (relative stereo) [Example 72, [S-(R*,R*)]-4-Methyl-2-(tetrahydro-pyran-4-ylamino)-pentanoic acid [1-(4-benzyloxy-benzyl)-2-oxo-2-thiomorpholin-4-yl-ethyl]-amide], the IC50 was 1200 nM.

Take `CCC(COC)NC(=O)[C@H](Cc1ccc(OCc2ccccc2)cc1)NC(=O)[C@H](CC(C)C)NC1CCOCC1` (relative stereo) [Example 75, [S-(R*,R*)]-4-Methyl-2-(tetrahydro-pyran-4-ylamino)-pentanoic acid [2-(4-benzyloxy-phenyl)-1-(1-methoxymethyl-propylcarbamoyl)-ethyl]-amide]: the IC50 amounted to 2400 nM.

With `CC(C)C[C@H](NC1CCOCC1)C(=O)N[C@@H](Cc1ccc(OCc2ccccc2)cc1)C(=O)NC1CCN(Cc2ccccc2)C1` (relative stereo) [Example 76, [S-(R*,R*)]-4-Methyl-2-(tetrahydro-pyran4-ylamino)-pentanoic acid [2-(4-benzyloxy-phenyl)-1-(1-benzyl-pyrrolidin-3-ylcarbamoyl)-ethyl]-amide], the IC50 worked out at 600 nM.

In the case of `CC(C)C[C@H](NC1CCOCC1)C(=O)N[C@@H](Cc1ccc(OCc2ccccc2)cc1)C(=O)NCCN1CCCCC1` (relative stereo) [Example 77, [S-(R*,R*)]-4-Methyl-2-(tetrahydro-pyran-4-ylamino)-pentanoic acid [2-(4-benzyloxy-phenyl)-1-(2-piperidin-1-yl-ethylcarbamoyl)-ethyl]-amide], the IC50 worked out at 2600 nM.

As to `CC(C)C[C@H](NC1CCOCC1)C(=O)N[C@@H](Cc1ccc(OCc2ccccc2)cc1)C(=O)N1CCCCC1` (relative stereo) [Example 79, [S-(R*,R*)]-4-Methyl-2-(tetrahydro-pyran-4-ylamino)-pentanoic acid [1-(4-benzyloxy-benzyl)-2-oxo-2-piperidin-1-yl-ethyl]-amide], the half-inhibitory concentration (IC50) worked out at 2100 nM.

As to `CC(C)C[C@@H](C(=O)N[C@@H](Cc1ccc(OCc2ccccc2)cc1)C(=O)NC(C)(C)C)N(C)Cc1ccc(Br)cc1` (relative stereo) [Example 81, [S-(R*,R*)]-2-[(4-Bromo-benzyl)-methyl-amino]4-methyl-pentanoic acid [2-(4-benzyloxy-phenyl)-1-tert-butylcarbamoyl-ethyl]-amide], the IC50 is 160 nM.

Take `CC(C)C[C@@H](C(=O)N[C@@H](Cc1ccc(OCc2ccccc2)cc1)C(=O)NC(C)(C)C)N(C)Cc1ccc(O)cc1` (relative stereo) [Example 82, [S-(R*,R*)]-2-[(4-Hydroxy-benzyl)-methyl-amino]-4-methyl-pentanoic acid [2-(4-benzyloxy-phenyl)-1-tert-butylcarbamoyl-ethyl]-amide]: the IC50 worked out at 1300 nM.

Regarding `CC(C)C[C@@H](C(=O)N[C@@H](Cc1ccc(OCc2ccccc2)cc1)C(=O)NC(C)(C)C)N(C)Cc1ccncc1` (relative stereo) [Example 83, [S-(R*,R*)]-4-Methyl-2-(methyl-pyridin4-ylmethyl-amino)-pentanoic acid [2-(4-benzyloxy-phenyl)-1-tert-butylcarbamoyl-ethyl]-amide], the IC50 was determined as 1300 nM.

For the compound `CC(C)C[C@@H](C(=O)N[C@@H](Cc1ccc(OCc2ccccc2)cc1)C(=O)NC(C)(C)C)N(C)C(C)C` (relative stereo) [Example 86, [S-(R*,R*)]-2-(Isopropyl-methyl-amino)-4-methyl-pentanoic acid [2-(4-benzyloxy-phenyl)-1-tert-butylcarbamoyl-ethyl]-amide], the IC50 came to 2800 nM.

Consider `CC(C)C[C@@H](C(=O)N[C@@H](Cc1ccc(OCc2ccccc2)cc1)C(=O)NC(C)(C)C)N(C)C1CCOCC1` (relative stereo) [Example 87, [S-(R*,R*)]-4-Methyl-2-[methyl-(tetrahydro-pyran-4-yl)-amino]-pentanoic acid [2-(4-benzyloxy-phenyl)-1-tert-butylcarbamoyl-ethyl]-amide], for which the IC50 was 3100 nM.

For `CC(C)C[C@@H](C(=O)N[C@@H](Cc1ccc(OCc2ccccc2)cc1)C(=O)NC(C)(C)C)N(C)Cc1ccc[nH]1` (relative stereo) [Example 89, [S-(R*,R*)]-4-Methyl-2-[methyl-(1H-pyrrol-2-ylmethyl)-amino]-pentanoic acid [2-(4-benzyloxy-phenyl)-1-tert-butylcarbamoyl-ethyl]-amide], the IC50 is 1000 nM.

Turning to `CC(C)C[C@H](NCC1CCCCC1)C(=O)N[C@@H](Cc1ccc(OCc2ccccc2)cc1)C(=O)OC(C)(C)C` (relative stereo) [Example 91, [S-(R*,R*)]-3-(4Benzyloxy-phenyl)-2-[2-(cyclohexylmethyl-amino)-4-methyl-pentanoylamino]-propionic acid tert-butyl ester], the IC50 was determined as 300 nM.

Turning to `CC(C)C[C@@H](C(=O)N[C@@H](Cc1ccc(OCc2ccccc2)cc1)C(=O)NC(C)(C)C)N1CCOCC1` (relative stereo) [Example 94, [S-(R*,R*)]-4-Methyl-2-morpholin-4-yl-pentanoic acid [2-(4-benzyloxy-phenyl)-1-tert-butylcarbamoyl-ethyl]-amide], under “1 μM, 5 μM nitrendipine”, the “IMR 32 % of Blockade @ 1 μM” value is listed as 24%.

As for `CCOC(=O)CN(C)[C@@H](CC(C)C)C(=O)N[C@@H](Cc1ccc(OCc2ccccc2)cc1)C(=O)NC(C)(C)C` (relative stereo) [Example 96, [S-(R*,R*)]-({1-[2-(4-Benzyloxy-phenyl)-1-tert-butylcarbamoyl-ethylcarbamoyl]-3-methyl-butyl}-methyl-amino)-acetic acid ethyl ester], the IC50 is 4400 nM.

As for `COc1ccc(CN(C)[C@@H](CC(C)C)C(=O)N[C@@H](Cc2ccc(OCc3ccccc3)cc2)C(=O)NC(C)(C)C)cc1` (relative stereo) [Example 98, [S-(R*,R*)]-2-[(4-Methoxy-benzyl)-methyl-amino]-4-methyl-pentanoic acid [2-(4-benzyloxy-phenyl)-1-tert-butylcarbamoyl-ethyl]-amide], the IC50 came out at 400 nM.
